Measurements taken from patent US20190374506A1, “COMPOSITIONS AND METHODS FOR TREATING CANCER” (BETH ISREAL DEACONESS MEDICAL CENTER, priority 2016, published 2019).

Assays:
[1] = test system: PTEN/AKT pathway in PC3 cells (PTEN-null); assay: Western blot analysis of PTEN/AKT pathway in PC3 cells; format: cell-based, human; conditions: different doses of I3C for 3 Days
Description: FIG. 11B provides an analysis of effects of I3C on PTEN/AKT pathway in DU145 or PC3 cells by western blot analysis. Cells were treated with different doses of I3C for 3 Days, and followed by western blot analysis. Whether targeting WWP1/NEDD4-1, thereby enhancing PTEN dimerization and function, could offer a unique opportunity to treat MYC-driven cancers was investigated. […] As there is no small pharmacological inhibitor currently available to suppress/inhibit WWP1 activity, Indole-3-Carbinol (I3C), a potential WWP1 inhibitor, which suppresses the WWP1 activity through binding to its HECT domain, was used. First, to assess the on-target effects of I3C towards WWP1, Wwp1^−/− MEFs were used. […] Additionally, two independent PTEN stably knocked-down cells were generated. […] Western Blotting and Immunoprecipitation. For western blotting, cells were lysed in RIPA buffer (Boston BioProducts) supplemented with protease (Roche) and phosphatase (Roche) inhibitor. Proteins were separated on NuPAGE 4-12% Bis-Tris gradient gels (Invitrogen), transferred to polyvinylidine difluoride membranes (Immobilon P, Millipore) and the blots were probed with the indicated antibodies. For immunoprecipitation, PC3, 293T and MEF cells were transfected with the indicated expression vectors by using LIPOFECTAMIN 2000 (Life Technologies). […]

[2] = target: NEDD4-1; conditions: previous study (Aronchik et al., 2014); read-out: calculated equilibrium dissociation constant (Kd) with NEDD4-1; cited from earlier work
[3] = test system: AKT activation in prostate spheres; assay: Western blot analysis of prostate spheres at P1 passage; format: cell-based, mouse; conditions: 20 μM I3C for 3 Days (low dose)
Description: FIG. 11G is a Western blot analysis of prostate spheres at P1 passage treated with 20 μM I3C for 3 Days.

[4] = test system: Hi-Myc prostate spheres; assay: Prostate sphere forming ability of WT or Hi-Myc prostatic epithelial cells; format: cell-based, mouse; conditions: Hi-Myc spheres at P1 passage, 10 μM I3C for 3 Day (low dose)
[5] = test system: DU145 cells; assay: Growth curves, colorimetric MTT assay, DU145 cells; format: cell-based, human; conditions: various doses of I3C for 5 Days
Description: FIG. 11C provides growth curves of DU145 (PTEN competent) or PC3 cells (PTEN null) treated with various doses of I3C for 5 Days, and then assayed with colorimetric MTT assay (three experiments). Whether targeting WWP1/NEDD4-1, thereby enhancing PTEN dimerization and function, could offer a unique opportunity to treat MYC-driven cancers was investigated. […] As there is no small pharmacological inhibitor currently available to suppress/inhibit WWP1 activity, Indole-3-Carbinol (I3C), a potential WWP1 inhibitor, which suppresses the WWP1 activity through binding to its HECT domain, was used. First, to assess the on-target effects of I3C towards WWP1, Wwp1^−/− MEFs were used. […] Additionally, two independent PTEN stably knocked-down cells were generated.

[6] = test system: Wwp1^+/+ and Wwp1^−/− MEFs; assay: Growth curves of Wwp1+/+ and Wwp1-/- MEFs treated with I3C; format: cell-based, mouse; conditions: 100 μM I3C
Description: FIG. 10C provides growth curves of Wwp1^+/+ and Wwp1^−/− MEFs treated with 100 μM I3C. Representative pictures of the cells at Day 3 are shown below. Whether targeting WWP1/NEDD4-1, thereby enhancing PTEN dimerization and function, could offer a unique opportunity to treat MYC-driven cancers was investigated. […] As there is no small pharmacological inhibitor currently available to suppress/inhibit WWP1 activity, Indole-3-Carbinol (I3C), a potential WWP1 inhibitor, which suppresses the WWP1 activity through binding to its HECT domain, was used. First, to assess the on-target effects of I3C towards WWP1, Wwp1^−/− MEFs were used. […] Additionally, two independent PTEN stably knocked-down cells were generated. […] At 8 hours post-transfection, cells were trypsinized, resuspended, and seeded in three separate 12-well plates at a final density of 20,000/well. Starting the following day (d0), one plate per day was washed once with PBS, fixed in 10% formalin solution for 10 minutes at room temperature, and kept in PBS at 4° C. On the last day, all of the wells were stained with crystal violet. After lysis with 10% acetic acid, optical density was read at 595 nm.

Compound: OCc1c[nH]c2ccccc12 [I3C, indole-3-carbinol]
- effects on AKT suppression and apoptosis [1]: only negligible effects
- Kd [2]: ~88.1 µM
- AKT activation driven by MYC expression ([3]; Hi-Myc prostate spheres): abolished AKT activation
- apoptosis in Hi-Myc prostate spheres ([3]; Hi-Myc prostate spheres): concomitant apoptosis
- AKT activation and apoptosis in WT prostate spheres ([3]; WT prostate spheres): not in WT prostate spheres
- prostate sphere-forming ability [4]: drastically suppressed
- cell growth [5]: drastic inhibition of cell growth
- sensitivity of Wwp1−/− cells to I3C treatment compared to Wwp1+/+ cells [6]: more resistant
